US10138207B2, “Benzomorphan analogs and the use thereof” (priority 2012, dated 2018)
Where two headings read alike, the source gives them in different places.

Columns and labels:
μ-opioid receptor = μ-opioid receptor (Homo sapiens, UniProt P35372); experiment: μ-opioid receptor [35S]GTPγS functional assay, U-2 OS cells; assay type: biochemical; design: expressed in transfected cells; host or cells: U-2 OS
κ opioid receptor = κ opioid receptor (Homo sapiens, UniProt P41145); experiment: κ-opioid receptor [35S]GTPγS functional assay, U-2 OS cells; assay type: biochemical; design: expressed in transfected cells; host or cells: U-2 OS (in-house membranes); settings: for Emax: read-out: GTPγS κ Emax
Experimental: Membranes from recombinant HEK-293 cells, CHO or U-2 OS cells expressing the recombinant human κ opioid receptor (κ) were prepared by lysing cells in ice cold hypotonic buffer (2.5 mM MgCl2, 50 mM HEPES, pH 7.4) (10 mL/10 cm dish) followed by homogenization with a tissue grinder/Teflon pestle. […] Membranes were collected by centrifugation at 30,000×g for 15 min at 4° C. and pellets were resuspended in hypotonic buffer to a final concentration of 1-3 mg/mL. Protein concentrations were determined using the BioRad protein assay reagent with bovine serum albumen as standard. Aliquots of κ receptor membranes were stored at −80° C.
Plates were incubated for 30 min at a temperature of about 25° C. with shaking.

[1] = U-2 OS cells, read-out: GTPγS μ EC50
[2] = U-2 OS cells, relative to DAMGO, read-out: GTPγS μ Emax
[3] = U-2 OS cells, read-out: GTPγS κ EC50
[4] = U-2 OS cells, relative to U69,593
[5] = read-out: GTPγS μ Emax, U-2 OS cells, relative to DAMGO

Chain of μ-opioid receptor (P35372 whole entry, species assumed): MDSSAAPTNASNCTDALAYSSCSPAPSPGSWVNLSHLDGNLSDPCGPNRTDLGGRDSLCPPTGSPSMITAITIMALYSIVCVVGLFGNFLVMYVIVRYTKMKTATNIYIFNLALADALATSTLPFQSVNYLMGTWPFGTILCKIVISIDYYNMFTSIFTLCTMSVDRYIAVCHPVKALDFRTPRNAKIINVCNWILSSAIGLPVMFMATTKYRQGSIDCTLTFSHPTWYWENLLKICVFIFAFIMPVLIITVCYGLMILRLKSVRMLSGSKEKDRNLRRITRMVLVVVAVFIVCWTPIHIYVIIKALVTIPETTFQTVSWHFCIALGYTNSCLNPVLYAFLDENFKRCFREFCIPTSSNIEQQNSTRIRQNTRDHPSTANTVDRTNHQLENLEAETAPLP
Chain of κ opioid receptor (P41145 whole entry): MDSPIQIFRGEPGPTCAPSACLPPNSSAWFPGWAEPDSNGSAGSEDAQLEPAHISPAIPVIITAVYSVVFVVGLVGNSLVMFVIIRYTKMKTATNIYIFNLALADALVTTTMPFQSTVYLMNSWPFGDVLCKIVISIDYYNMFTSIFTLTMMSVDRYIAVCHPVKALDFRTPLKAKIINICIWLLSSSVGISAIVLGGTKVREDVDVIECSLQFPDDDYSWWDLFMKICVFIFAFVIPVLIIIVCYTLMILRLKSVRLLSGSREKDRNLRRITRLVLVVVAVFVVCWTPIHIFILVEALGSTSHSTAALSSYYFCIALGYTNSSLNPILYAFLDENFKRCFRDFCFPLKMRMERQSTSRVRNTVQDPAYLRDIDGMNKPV

| Compound | EC50 (μ-opioid receptor; [1]) | Emax (μ-opioid receptor; [2]) | EC50 (κ opioid receptor; [3]) | Emax (κ opioid receptor; [4]) | Emax (μ-opioid receptor; [5]) | EC50 (κ opioid receptor) | Emax (κ opioid receptor) | GTPγS μ Emax (μ-opioid receptor; U-2 OS cells, relative to DAMGO) | EC50 (κ opioid receptor; U-2 OS cells, bound in μM, read-out: GTPγS κ EC50) | EC50 (μ-opioid receptor; GTPγS μ EC50, U-2 OS cells) |
| --- | --- | --- | --- | --- | --- | --- | --- | --- | --- | --- |
| CN([C@@H]1[C@H]2Cc3ccc(O)cc3[C@]1(C)CCN2CC1CC1)S(=O)(=O)c1cccc(C(F)(F)F)c1 [Compound 130, N-((2R,6S,11S)-3-(cyclopropylmethyl)-8-hydroxy-6-methyl-1,2,3,4,5,6-hexahydro-2,6-methanobenzo[d]azocin-11-yl)-N-methyl-3-(trifluoromethyl)benzenesulfonamide] | 373 ± 105 nM | 29 ± 2% | 22.8 ± 3.38 nM | 71 ± 3.11% | – | – | – | – | – | – |
| CN1CC[C@@]2(C)c3cc(O)ccc3C[C@@H]1[C@H]2N(C)C(=O)c1ccsc1 [Compound 125, N-((2R,6S,11S)-8-hydroxy-3,6-dimethyl-1,2,3,4,5,6-hexahydro-2,6-methanobenzo[d]azocin-11-yl)-N-methylthiophene-3-carboxamide] | 2620 ± 396 nM | 70.7 ± 2.33% | 443 ± 73.2 nM | 102 ± 5.69% | – | – | – | – | – | – |
| CN1CC[C@@]2(C)c3cc(O)ccc3C[C@@H]1[C@@H]2N(C)C(=O)Cc1ccsc1 [Compound 123, N-((2R,6S,11R)-8-hydroxy-3,6-dimethyl-1,2,3,4,5,6-hexahydro-2,6-methanobenzo[d]azocin-11-yl)-N-methyl-2-(thiophen-3-yl)acetamide] | – | – | – | – | 104 ± 3.06% | 113 ± 5.8 nM | 74 ± 3.06% | – | – | – |
| CN1CC[C@@]2(C)c3cc(O)ccc3C[C@@H]1[C@H]2N(C)C(=O)Cc1ccccc1 [Compound 117, N-((2R,6S,11S)-8-hydroxy-3,6-dimethyl-1,2,3,4,5,6-hexahydro-2,6-methanobenzo[d]azocin-11-yl)-N-methyl-2-phenylacetamide] | 822 ± 93.9 nM | 93.7 ± 5.36% | 3390 ± 439 nM | 79.7 ± 5.46% | – | – | – | – | – | – |
| CC(C)CCC(=O)N(C)[C@H]1[C@H]2Cc3ccc(O)cc3[C@]1(C)CCN2C [Compound 116, N-((2R,6S,11R)-8-hydroxy-3,6-dimethyl-1,2,3,4,5,6-hexahydro-2,6-methanobenzo[d]azocin-11-yl)-N,4-dimethylpentanamide] | 3.12 ± 0.15 nM | 104 ± 2.96% | 69.4 ± 5.37 nM | 56.3 ± 3.93% | – | – | – | – | – | – |
| CN1CC[C@@]2(C)c3cc(O)ccc3C[C@@H]1[C@@H]2NCCc1cccs1 [Compound 104, (2R,6S,11R)-3,6-dimethyl-11-((2-(thiophen-2-yl)ethyl)amino)-1,2,3,4,5,6-hexahydro-2,6-methanobenzo[d]azocin-8-ol] | 51.3 ± 5.26 nM | 105.3 ± 0.88% | 1260 ± 229 nM | 79.7 ± 5.9% | – | – | – | – | – | – |
| CN1CC[C@@]2(C)c3cc(O)ccc3C[C@@H]1[C@@H]2N(C)C(=O)Cc1ccccc1 [Compound 118, N-((2R,6S,11R)-8-hydroxy-3,6-dimethyl-1,2,3,4,5,6-hexahydro-2,6-methanobenzo[d]azocin-11-yl)-N-methyl-2-phenylacetamide] | 1.32 ± 0.04 nM | 101 ± 2.52% | 90.8 ± 7.63 nM | 75.2 ± 4.33% | – | – | – | – | – | – |
| CN1CC[C@@]2(C)c3cc(O)ccc3C[C@@H]1[C@H]2NCCNC(=O)OC(C)(C)C [Compound 112, tert-butyl (2-(((2R,6S,11S)-8-hydroxy-3,6-dimethyl-1,2,3,4,5,6-hexahydro-2,6-methanobenzo[d]azocin-11-yl)amino)ethyl)carbamate] | 7.56 ± 0.45 nM | 83.7 ± 1.45% | 23.4 ± 7.81 nM | 26.3 ± 0.88% | – | – | – | – | – | – |
| CN1CC[C@@]2(C)c3cc(O)ccc3C[C@@H]1[C@@H]2N(C)CC1CCN(C(=O)OC(C)(C)C)CC1 [Compound 108, tert-butyl 4-((((2R,6S,11R)-8-hydroxy-3,6-dimethyl-1,2,3,4,5,6-hexahydro-2,6-methanobenzo[d]azocin-11-yl)(methyl)amino)methyl)piperidine-1-carboxylate] | 0.39 ± 0.11 nM | – | 3.27 ± 0.69 nM | 18.8 ± 1.25% | – | – | – | 80.80 ± 2.50% | – | – |
| CN1CC[C@@]2(C)c3cc(O)ccc3C[C@@H]1[C@H]2N(C)C(=O)C1CCCCC1 [Compound 120, N-((2R,6S,11S)-8-hydroxy-3,6-dimethyl-1,2,3,4,5,6-hexahydro-2,6-methanobenzo[d]azocin-11-yl)-N-methylcyclohexanecarboxamide] | 2940 ± 481 nM | 76.3 ± 3.48% | 2860 ± 231 nM | 62.3 ± 4.91% | – | – | – | – | – | – |
| CN1CC[C@@]2(C)c3cc(O)ccc3C[C@@H]1[C@H]2N(C)CCc1ccc(S(N)(=O)=O)cc1 [Compound 109, 4-(2-(((2R,6S,11S)-8-hydroxy-3,6-dimethyl-1,2,3,4,5,6-hexahydro-2,6-methanobenzo[d]azocin-11-yl)(methyl)amino)ethyl)benzenesulfonamide] | 29 ± 1.36 nM | 100 ± 3.18% | 192 ± 41.6 nM | 36.7 ± 0.67% | – | – | – | – | – | – |
| CN1CC[C@@]2(C)c3cc(O)ccc3C[C@@H]1[C@@H]2N(C)S(=O)(=O)c1cccc(C(F)(F)F)c1 [Compound 132, N-((2R,6S,11R)-8-hydroxy-3,6-dimethyl-1,2,3,4,5,6-hexahydro-2,6-methanobenzo[d]azocin-11-yl)-N-methyl-3-(trifluoromethyl)benzenesulfonamide] | 3.03 ± 0.17 nM | 95.3 ± 2.6% | 11.4 ± 1.58 nM | 89 ± 5.69% | – | – | – | – | – | – |
| CN1CC[C@@]2(C)c3cc(O)ccc3C[C@@H]1[C@H]2N(C)S(=O)(=O)c1cccc(C(F)(F)F)c1 [Compound 131, N-((2R,6S,11S)-8-hydroxy-3,6-dimethyl-1,2,3,4,5,6-hexahydro-2,6-methanobenzo[d]azocin-11-yl)-N-methyl-3-(trifluoromethyl)benzenesulfonamide] | 290 ± 5.32 nM | 69 ± 1% | – | 0% | – | – | – | – | > 20000 nM | – |
| CN1CC[C@@]2(C)c3cc(O)ccc3C[C@@H]1[C@@H]2NCCc1ccc(Cl)c(Cl)c1 [Compound 98, (2R,6S,11R)-11-((3,4-dichlorophenethyl)amino)-3,6-dimethyl-1,2,3,4,5,6-hexahydro-2,6-methanobenzo[d]azocin-8-ol] | 0.3 ± 0.027 nM | 104 ± 3.76% | 28.6 ± 3.21 nM | 95.3 ± 3.84% | – | – | – | – | – | – |
| CN1CC[C@@]2(C)c3cc(O)ccc3C[C@@H]1[C@H]2NCCc1ccncc1 [Compound 103, (2R,6S,11S)-3,6-dimethyl-11-((2-(pyridin-4-yl)ethyl)amino)-1,2,3,4,5,6-hexahydro-2,6-methanobenzo[d]azocin-8-ol] | 117 ± 2.82 nM | 77.5 ± 1.26% | 287 ± 62 nM | 83 ± 8.02% | – | – | – | – | – | – |
| C=CC[C@@]12CCN(C)C(Cc3ccc(OC)cc31)[C@@H]2N(C)C(=O)Nc1ccc(C#N)cc1 [Compound 135, 1-((6R,11R)-6-allyl-8-methoxy-3-methyl-1,2,3,4,5,6-hexahydro-2,6-methanobenzo[d]azocin-11-yl)-3-(4-cyanophenyl)-1-methylurea] | 1700 ± 112 nM | 92 ± 2.65% | 2810 ± 397 nM | 22 ± 2.52% | – | – | – | – | – | – |
| CN(C(=O)Nc1nc2cc(F)ccc2s1)[C@@H]1[C@H]2Cc3ccc(O)cc3[C@]1(C)CCN2CC1CC1 [Compound 134, 1-((2R,6S,11S)-3-(cyclopropylmethyl)-8-hydroxy-6-methyl-1,2,3,4,5,6-hexahydro-2,6-methanobenzo[d]azocin-11-yl)-3-(5-fluorobenzo[d]thiazol-2-yl)-1-methylurea] | – | – | – | – | 16 ± 0.71% | > 20000 nM | 90% | – | – | 1.47 ± 0.58 nM |
| CN1CC[C@@]2(C)c3cc(O)ccc3C[C@@H]1[C@@H]2N(C)C(=O)C1CCCCC1 [Compound 121, N-((2R,6S,11R)-8-hydroxy-3,6-dimethyl-1,2,3,4,5,6-hexahydro-2,6-methanobenzo[d]azocin-11-yl)-N-methylcyclohexanecarboxamide] | 126 ± 15.4 nM | 91.7 ± 4.18% | 604 ± 68.1 nM | 18.3 ± 0.88% | – | – | – | – | – | – |
| C[C@]12CCN(CC3CC3)[C@H](Cc3ccc(O)cc31)[C@H]2NC(=O)c1ccsc1 [Compound 113, N-((2R,6S,11S)-3-(cyclopropylmethyl)-8-hydroxy-6-methyl-1,2,3,4,5,6-hexahydro-2,6-methanobenzo[d]azocin-11-yl)thiophene-3-carboxamide] | 0.45 ± 0.036 nM | 68.7 ± 3.71% | 0.052 ± 0.013 nM | 99.2 ± 1.65% | – | – | – | – | – | – |
| CN1CC[C@@]2(C)c3cc(O)ccc3C[C@@H]1[C@@H]2N(C)C(=O)c1ccsc1 [Compound 124, N-((2R,6S,11R)-8-hydroxy-3,6-dimethyl-1,2,3,4,5,6-hexahydro-2,6-methanobenzo[d]azocin-11-yl)-N-methylthiophene-3-carboxamide] | 14.1 ± 0.48 nM | 98 ± 3.06% | 680 ± 67.7 nM | 77.3 ± 4.63% | – | – | – | – | – | – |
| C[C@]12CCN(CC3CC3)[C@H](Cc3ccc(O)cc31)[C@@H]2NCCc1ccc(S(N)(=O)=O)cc1 [Compound 96, 4-(2-(((2R,6S,11R)-3-(cyclopropylmethyl)-8-hydroxy-6-methyl-1,2,3,4,5,6-hexahydro-2,6-methanobenzo[d]azocin-11-yl)amino)ethyl)benzenesulfonamide] | 6.01 ± 0.51 nM | 32.3 ± 0.88% | 6.41 ± 1.67 nM | – | – | – | – | – | – | – |
| CN1CC[C@@]2(C)c3cc(O)ccc3C[C@@H]1[C@H]2NCCc1c[nH]c2ccccc12 [Compound 110, (2R,6S,11S)-11-((2-(1H-indol-3-yl)ethyl)amino)-3,6-dimethyl-1,2,3,4,5,6-hexahydro-2,6-methanobenzo[d]azocin-8-ol] | 11.6 ± 1.55 nM | 92.3 ± 2.03% | 25.4 ± 3.38 nM | 37.7 ± 2.03% | – | – | – | – | – | – |
| CN1CC[C@@]2(C)c3cc(O)ccc3C[C@@H]1[C@@H]2NC(=O)Nc1nc2cc(F)ccc2s1 [Compound 139, 1-(5-fluorobenzo[d]thiazol-2-yl)-3-((2R,6S,11R)-8-hydroxy-3,6-dimethyl-1,2,3,4,5,6-hexahydro-2,6-methanobenzo[d]azocin-11-yl)urea] | 12.5 ± 2.18 nM | 87 ± 3.08% | 91.8 ± 4.88 nM | 48 ± 5.13% | – | – | – | – | – | – |
